Measurements taken from article PMC6268022, “Substituted N-Benzylpyrazine-2-carboxamides: Synthesis and Biological Evaluation ^†” (Molecules, 2012).
Converted amounts (≈) assume the structure as drawn. “And” between values parts separate entries of the source, which are not always exact repeats. Identical values can stand only once. Like-named read-outs stand apart in the source and are kept apart here.

Tests used:
[1] = test system: photosynthetic electron transport (PET) in spinach chloroplasts; test: Inhibition of photosynthetic electron transport (oxygen evolution rate) in spinach chloroplasts; assay type: biochemical, Spinacia oleracea L.; conditions: DCPIP photoreduction, pH 7.2
Description: All studied compounds were evaluated for their photosynthetic electron transport (PET) inhibition in spinach chloroplasts, which was reflected in the inhibition of oxygen evolution rate. The photosynthesis-inhibiting activity of the compounds has been expressed as IC50 values. Compounds 4, 5, 7 and 8 were not tested due to their low solubility in tested medium.
Chloroplasts were prepared from spinach (Spinacia oleracea L.) according to Masarovičová and Kráľová [31]. The inhibition of photosynthetic electron transport (PET) in spinach chloroplasts was determined spectrophotometrically (Genesys 6, Thermo Scientific, Madison, WI, USA) using an artificial electron acceptor 2,6-dichlorophenol-indophenol (DCPIP) according to Kráľová et al. and the rate of photosynthetic electron transport (PET) was monitored as a photo-reduction of DCPIP. The measurements were carried out in a phosphate buffer (0.02 mol/L, pH 7.2) containing sucrose (0.4 mol/L), MgCl2 (0.005 mol/L) and NaCl (0.015 mol/L). The chlorophyll content was 30 mg/L in these experiments and the samples were irradiated (~100 W/m^2) from a 10 cm distance with halogen lamp (250 W) using a 4 cm water filter to prevent warming of the samples (suspension temperature 22 °C). The studied compounds were dissolved in DMSO due to their limited water solubility. […] The inhibitory efficiency of the studied compounds was expressed as the IC50 values, i.e., molar concentration of the compounds causing 50% decrease in the oxygen evolution relative to the untreated control.

[2] = test system: M. tuberculosis H37Rv CNCTC My 331/88; test: In vitro antimycobacterial microdilution panel method; assay type: cell-based; conditions: Mycobacterium tuberculosis, 336 h
[3] = test system: M. avium CNCTC My 80/72; test: as above; assay type: cell-based; conditions: Mycobacterium avium, 336 h; CNCTC My 80/72, pH 6.0, 14 days
[4] = test system: M. avium CNCTC My 152/73; test: as above; assay type: cell-based; conditions: Mycobacterium avium, 336 h; CNCTC My 152/73, pH 6.0, 14 days
[5] = test system: M. kansasii CNCTC My 235/80; test: as above; assay type: cell-based; conditions: Mycobacterium kansasii, 144 h; CNCTC My 235/80, pH 6.0, 6 days
[6] = test system: Trichophyton mentagrophytes 445; test: In vitro antifungal microdilution broth method; assay type: cell-based; conditions: RPMI 1640 pH 7.0, 35 °C; for MIC: read-out: TM MIC
Description: The Department of Medical and Biological Sciences at the Faculty of Pharmacy in Hradec Králové, Charles University in Prague, Czech Republic, performed the antifungal susceptibility assays, which was carried out using microdilution broth method. Compounds were dissolved in DMSO and diluted in a twofold manner with RPMI 1640 medium with glutamine buffered to pH 7.0 (3-morpholinopropane-1-sulfonic acid). […] Drug-free controls were included. […] The MICs were determined after 24 and 48 h, respectively after 72 and 120 h for Trichophyton mentagrophytes (TM), of static incubation in dark at 35 °C. Tested species: […]

[7] = HPLC lipophilicity determination (capacity factor k / log k); conditions: RP-HPLC, C18, MeOH 70%/H2O 30%, 30 °C
Description: The separation process was controlled by Agilent ChemStation, version B.04.02 extended by spectral module (Agilent Technologies Inc.). A solution of MeOH (HPLC grade, 70%) with H2O (HPLC-Milli-Q Grade, 30%) was used as mobile phase. The total flow of the column was 1.0 mL/min, injection 20 µL, column temperature 30 °C. 210 nm as detection wavelength and 270 nm as monitor wavelength were chosen. The KI methanol solution was used for the dead time (TD) determination. Retention times (TR) of synthesized compounds were measured in minutes. The capacity factors k were calculated using Microsoft Excel according to formula k = (TR − TD)/TD, where TR is the retention time of the solute and TD denotes the dead time obtained via an unretained analyte. Log k, calculated from the capacity factor k, is used as the lipophilicity index converted to log P scale.

[8] = test system: pigment-protein complexes in photosystem 2; test: Fluorescence of chlorophyll a in spinach chloroplasts; assay type: biochemical, Spinacia oleracea L.; conditions: λex = 436 nm, 0-0.42 mmol/L
Source text: The effects of the studied compounds on the photosynthetic apparatus of spinach chloroplasts were investigated by studying chlorophyll a (Chla) fluorescence. […] The extent of perturbation of chlorophyll a-protein complexes in the thylakoid membrane was reflected as decreased fluorescence of the pigment (see Figure 3B). Similar decrease of Chla fluorescence in plant chloroplasts was also observed previously after treatment with substituted benzanilides and salicyanilides. The fluorescence emission spectra of chlorophyll a (Chla) and aromatic amino acids in spinach chloroplasts were recorded on fluorescence spectrophotometer F-2000 (Hitachi, Tokyo, Japan) using excitation wavelength λex = 436 nm for monitoring fluorescence of Chla and λex = 275 nm for monitoring fluorescence of aromatic amino acids, excitation slit 20 nm and emission slit 10 nm. The samples were kept in the dark 2 min before measuring. The phosphate buffer used for dilution of the chloroplast suspension was the same as described above. Due to low aqueous solubility the compounds were added to a chloroplast suspension in DMSO solution. The DMSO concentration in all samples was the same as in the control (10%). The chlorophyll concentration in chloroplast suspension was 10 mg/L.

[9] = test system: photosynthetic electron transport (PET) in spinach chloroplasts; parameters: method as in earlier work; conditions: standard, read-out: IC50 (PET inhibition); cited from earlier work
[10] = test system: aromatic amino acids in the proteins of spinach chloroplasts situated in PS 2; test: Fluorescence of aromatic amino acids in spinach chloroplasts; assay type: biochemical, Spinacia oleracea L.; conditions: λex = 275 nm, 0-0.11 mmol/L
Source text: Figure 4 presents fluorescence emission spectra of aromatic amino acids of untreated spinach chloroplasts and of chloroplasts treated with increasing concentrations of compound 6 (see Figure 4A) as well as dependence of fluorescence intensity of chlorophyll a on concentration of compounds 2 (squares), 11 (triangles) and 6 (circles) (see Figure 4B). Binding of these compounds to aromatic amino acids occurring in photosynthetic proteins contribute to PET inhibition. The fluorescence emission spectra of chlorophyll a (Chla) and aromatic amino acids in spinach chloroplasts were recorded on fluorescence spectrophotometer F-2000 (Hitachi, Tokyo, Japan) using excitation wavelength λex = 436 nm for monitoring fluorescence of Chla and λex = 275 nm for monitoring fluorescence of aromatic amino acids, excitation slit 20 nm and emission slit 10 nm. The samples were kept in the dark 2 min before measuring. The phosphate buffer used for dilution of the chloroplast suspension was the same as described above. Due to low aqueous solubility the compounds were added to a chloroplast suspension in DMSO solution. The DMSO concentration in all samples was the same as in the control (10%). The chlorophyll concentration in chloroplast suspension was 10 mg/L.

[11] = MIC with respect to molecular weight, Šula's medium pH 6.0, 14 days, read-out: MIC M. tuberculosis H37Rv (value in parentheses)
[12] = Šula's medium pH 6.0, 37 °C, 14 days, read-out: MIC M. tuberculosis H37Rv
[13] = Trichophyton mentagrophytes, 445, 72 h, pH 7, evaluated after 72 h
[14] = Trichophyton mentagrophytes, 445, 120 h, pH 7, evaluated after 120 h

| Structure (SMILES) | IC50 [1] [µM] | MIC [2, 11] [µM] | MIC [2, 12] [µg/mL] | MIC [3] [µg/mL] | MIC [4] [µg/mL] | MIC [5] [µg/mL] | MIC [6, 13] [µM] | MIC [6, 14] [µM] | log k [7] | TM MIC ([6]; evaluated after 72 h) | chlorophyll a fluorescence emission [8] | IC50 [9] | fluorescence of aromatic amino acids [10] |
| --- | --- | --- | --- | --- | --- | --- | --- | --- | --- | --- | --- | --- | --- |
| CC(C)(C)c1ncc(C(=O)NCc2cccc(C(F)(F)F)c2)nc1Cl [Compound 10, 5-tert-Butyl-6-chloro-N-(3-trifluoromethylbenzyl)pyrazine-2-carboxamide] | 36.3 | 16 | 6.25 | 25 (≈ 67.2 µM) | 25 (≈ 67.2 µM) | 25 (≈ 67.2 µM) | 250 (≈ 92.9 µg/mL) | 250 (≈ 92.9 µg/mL) | 1.3638 | – | – | – | – |
| O=C(NCc1ccc(Cl)cc1)c1cnc(Cl)cn1 [Compound 3, 5-Chloro-N-(4-chlorobenzyl)pyrazine-2-carboxamide] | 604 | 44 | 12.5 | 100 (≈ 354 µM) | 100 (≈ 354 µM) | 100 (≈ 354 µM) | 125 (≈ 35.3 µg/mL) | 125 (≈ 35.3 µg/mL) | 0.4150 | – | – | – | – |
| O=C(NCc1cccc(C(F)(F)F)c1)c1cnc(Cl)cn1 [Compound 2, 5-Chloro-N-(3-trifluoromethylbenzyl)pyrazine-2-carboxamide] | 346 | 79 | 25 | 25 (≈ 79.2 µM) | 100 (≈ 317 µM) | 50 (≈ 158 µM) | 15.6 (≈ 4.93 µg/mL) | 15.6 (≈ 4.93 µg/mL) | 0.4384 | 15.62/15.62 µmol/L | decreased intensity of the emission band at 686 nm | – | – |
| NC(=O)c1cnccn1 [PZA, pyrazinamide, reference compound] | – | 50 to 101 | 6.25 to 12.5 | > 100 | > 100 | > 100 | – | – | – | – | – | – | – |
| O=C(NCc1ccc(Cl)cc1)c1cncc(Cl)n1 [Compound 7, 6-Chloro-N-(4-chlorobenzyl)pyrazine-2-carboxamide] | – | 44 | 12.5 | 100 (≈ 354 µM) | 12.5 (≈ 44.3 µM) | 100 (≈ 354 µM) | 125 (≈ 35.3 µg/mL) | 125 (≈ 35.3 µg/mL) | 0.4335 | – | – | – | – |
| CC(C)(C)c1ncc(C(=O)NCc2ccc(Cl)cc2)nc1Cl [Compound 11, 5-tert-Butyl-6-chloro-N-(4-chlorobenzyl)pyrazine-2-carboxamide] | 13.4 | 36 | 12.5 | 50 (≈ 148 µM) | 50 (≈ 148 µM) | 50 (≈ 148 µM) | 250 (≈ 84.6 µg/mL) | 500 (≈ 169 µg/mL) | 1.3511 | – | – | – | – |
| NNC(=O)c1ccncc1 [INH, isoniazid, reference compound] | – | 11 | 1.56 | 12.5 to 25 (≈ 91.1 to 182 µM) | 12.5 (≈ 91.1 µM) | 12.5 (≈ 91.1 µM) | – | – | – | – | – | – | – |
| O=C(NCc1ccccc1)c1cncc(Cl)n1 [Compound 5, N-Benzyl-6-chloropyrazine-2-carboxamide] | – | 50 | 12.5 | 100 (≈ 404 µM) | 100 (≈ 404 µM) | 50 (≈ 202 µM) | 250 (≈ 61.9 µg/mL) | 500 (≈ 124 µg/mL) | 0.2002 | – | – | – | – |
| COc1ccc(CNC(=O)c2cnc(Cl)cn2)cc1 [Compound 4, 5-Chloro-N-(4-methoxybenzyl)pyrazine-2-carboxamide] | – | 90 | 25 | 100 (≈ 360 µM) | 50 (≈ 180 µM) | 100 (≈ 360 µM) | 250 (≈ 69.4 µg/mL) | 250 (≈ 69.4 µg/mL) | 0.1655 | – | – | – | – |
| COc1ccc(CNC(=O)c2cncc(Cl)n2)cc1 [Compound 8, 6-Chloro-N-(4-methoxybenzyl)pyrazine-2-carboxamide] | – | 22 | 6.25 | 100 (≈ 360 µM) | 50 (≈ 180 µM) | 100 (≈ 360 µM) | 500 (≈ 139 µg/mL) | 500 (≈ 139 µg/mL) | 0.1838 | – | – | – | – |
| CC(C)(C)c1ncc(C(=O)NCc2ccccc2)nc1Cl [Compound 9, N-Benzyl-5-tert-butyl-6-chloropyrazine-2-carboxamide] | 7.4 | 82 | 25 | 25 (≈ 82.3 µM) | 50 (≈ 165 µM) | 100 (≈ 329 µM) | 250 (≈ 75.9 µg/mL) | 500 (≈ 152 µg/mL) | 1.1215 | – | – | – | – |
| CN(C)C(=O)Nc1ccc(Cl)c(Cl)c1 [DCMU, 3-(3,4-dichlorophenyl)-1,1-dimethylurea] | – | – | – | – | – | – | – | – | – | – | – | ~1.9 µM and 1.9 µM | – |
| OC(Cn1cncn1)(Cn1cncn1)c1ccc(F)cc1F [FLU, fluconazole, reference compound] | – | – | – | – | – | – | 1.95 (≈ 0.597 µg/mL) | 3.91 (≈ 1.2 µg/mL) | – | – | – | – | – |
| COc1ccc(CNC(=O)c2cnc(C(C)(C)C)c(Cl)n2)cc1 [Compound 12, 5-tert-Butyl-6-chloro-N-(4-methoxybenzyl)pyrazine-2-carboxamide] | 122 | 18 | 6.25 | 12.5 (≈ 37.4 µM) | 6.25 (≈ 18.7 µM) | 3.12 (≈ 9.36 µM) | 250 (≈ 83.5 µg/mL) | 500 (≈ 167 µg/mL) | 0.8071 | – | – | – | – |
| O=C(NCc1cccc(C(F)(F)F)c1)c1cncc(Cl)n1 [Compound 6, 6-Chloro-N-(3-trifluoromethylbenzyl)pyrazine-2-carboxamide] | 1210 | 39 | 12.5 | 25 (≈ 79.2 µM) | 100 (≈ 317 µM) | 100 (≈ 317 µM) | 62.5 (≈ 19.7 µg/mL) | 125 (≈ 39.5 µg/mL) | 0.4507 | – | – | – | quenching of their fluorescence at 334 nm |
| O=C(NCc1ccccc1)c1cnc(Cl)cn1 [Compound 1, N-Benzyl-5-chloropyrazine-2-carboxamide] | 1620 | 100 | 25 | 100 (≈ 404 µM) | 100 (≈ 404 µM) | 100 (≈ 404 µM) | 125 (≈ 31 µg/mL) | 125 (≈ 31 µg/mL) | 0.1862 | – | – | – | – |
